Assay results reported in ChEMBL document CHEMBL1201861, “Genomics of Drug Sensitity in Cancer screening data, Wellcome Trust Sanger Institute”.
pIC50: −log10 of the molar value.

Experiments:
Test in all cases: cells
[1] = system: no-10; format: functional, cell-based, Homo sapiens; conditions: Homo sapiens;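 further: growth inhibition of no-10 cells, read out with a cell viability assay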
Description: SANGER: Inhibition of human no-10 cell growth in a cell viability assay.

[2] = system: CAS-1; format: functional, cell-based, Homo sapiens; conditions: Homo sapiens, CAS-1;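 further: growth inhibition of CAS-1 cells, measured with a cell viability assay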
[3] = system: A101D; format: functional, cell-based, Homo sapiens; conditions: Homo sapiens, A101D;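 further: growth inhibition of the cell line, measured with a viability assay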
Description: SANGER: Inhibition of human A101D cell growth in a cell viability assay.

[4] = system: KNS-81-FD; format: functional, cell-based, Homo sapiens; conditions: Homo sapiens, KNS-81-FD;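 further: growth inhibition of KNS-81-FD cells, read out with a cell viability assay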
Description: SANGER: Inhibition of human KNS-81-FD cell growth in a cell viability assay.

[5] = system: EKVX; format: functional, cell-based, Homo sapiens; conditions: Homo sapiens, EKVX;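 further: growth inhibition of human EKVX cells, read out with a cell viability assay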
Description: SANGER: Inhibition of human EKVX cell growth in a cell viability assay.

[6] = system: LB1047-RCC; format: functional, cell-based, Homo sapiens; conditions: Homo sapiens, LB1047-RCC;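 further: inhibition of cell growth, determined with a cell viability assay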
Description: SANGER: Inhibition of human LB1047-RCC cell growth in a cell viability assay.

[7] = system: LB831-BLC; format: functional, cell-based, Homo sapiens; conditions: Homo sapiens, LB831-BLC;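 further: growth inhibition of LB831-BLC cells, read out with a cell viability assay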
Description: SANGER: Inhibition of human LB831-BLC cell growth in a cell viability assay.

[8] = system: ATN-1; format: functional, cell-based; conditions: Homo sapiens;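 further: growth inhibition of human ATN-1 cells, read out with a cell viability assay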
Description: SANGER: Inhibition of human ATN-1 cell growth in a cell viability assay.

[9] = system: SW 954; format: functional, cell-based, Homo sapiens; conditions: Homo sapiens, SW 954;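 further: growth inhibition of SW954 human cancer cells, read out as cell viability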
Description: SANGER: Inhibition of human SW954 cell growth in a cell viability assay.

[10] = system: DOHH-2; format: functional, cell-based; conditions: Homo sapiens;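 further: growth inhibition of human DOHH-2 cells, read out with a cell viability assay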
Description: SANGER: Inhibition of human DOHH-2 cell growth in a cell viability assay.

[11] = system: RPMI-8226; format: functional, cell-based; conditions: Homo sapiens
Description: SANGER: Inhibition of human RPMI-8226 cell growth in a cell viability assay.

[12] = system: NB10; format: functional, cell-based, Homo sapiens; conditions: Homo sapiens, NB10;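 further: growth inhibition of NB10 cells, read out by a cell viability assay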
Description: SANGER: Inhibition of human NB10 cell growth in a cell viability assay.

[13] = system: KP-N-YS; format: functional, cell-based; conditions: Homo sapiens;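 further: cell viability assay measuring inhibition of cell line growth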
Description: SANGER: Inhibition of human KP-N-YS cell growth in a cell viability assay.

[14] = system: A4-Fuk; format: functional, cell-based; conditions: Homo sapiens;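 further: growth inhibition of A4-Fuk cells, read out by a cell viability assay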
Description: SANGER: Inhibition of human A4-Fuk cell growth in a cell viability assay.

[15] = system: NH-12; format: functional, cell-based, Homo sapiens; conditions: Homo sapiens, NH-12;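 further: growth inhibition of NH-12 cells, read out with a cell viability assay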
Description: SANGER: Inhibition of human NH-12 cell growth in a cell viability assay.

[16] = system: NCI-H69; format: functional, cell-based; conditions: Homo sapiens;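 further: growth inhibition of the cell line, read out with a cell viability assay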
Description: SANGER: Inhibition of human NCI-H69 cell growth in a cell viability assay.

[17] = system: HDLM-2; format: functional, cell-based; conditions: Homo sapiens;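 further: cell viability assay measuring suppression of HDLM-2 proliferation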
Description: SANGER: Inhibition of human HDLM-2 cell growth in a cell viability assay.

[18] = system: EW-3; format: functional, cell-based; conditions: Homo sapiens;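 further: cell viability assay read-out, IC50 reflects inhibition of growth of the EW-3 cells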
Description: SANGER: Inhibition of human EW-3 cell growth in a cell viability assay.

[19] = system: SK-LMS-1; format: functional, cell-based, Homo sapiens; conditions: Homo sapiens, SK-LMS-1;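 further: growth inhibition of human SK-LMS-1 cells, read out with a cell viability assay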
Description: SANGER: Inhibition of human SK-LMS-1 cell growth in a cell viability assay.

[20] = system: C8166; format: functional, cell-based; conditions: Homo sapiens;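 further: growth inhibition of human C8166 cells measured by a cell viability assay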
Description: SANGER: Inhibition of human C8166 cell growth in a cell viability assay.

[21] = system: HCC 2998; format: functional, cell-based, Homo sapiens; conditions: Homo sapiens, HCC 2998;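 further: growth inhibition of human HCC2998 cells, measured with a cell viability read-out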
Description: SANGER: Inhibition of human HCC2998 cell growth in a cell viability assay.

[22] = system: NOS-1; format: functional, cell-based, Homo sapiens; conditions: Homo sapiens, NOS-1;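 further: growth inhibition of the human NOS-1 cell line, read out with a cell viability assay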
Description: SANGER: Inhibition of human NOS-1 cell growth in a cell viability assay.

[23] = system: KALS-1; format: functional, cell-based, Homo sapiens; conditions: Homo sapiens, KALS-1;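 further: growth inhibition of KALS-1 cells, determined with a cell viability assay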
[24] = system: NCI-H1299; format: functional, cell-based, Homo sapiens; conditions: Homo sapiens, NCI-H1299;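 further: growth inhibition of human NCI-H1299 cells, read out by a cell viability assay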
Description: SANGER: Inhibition of human NCI-H1299 cell growth in a cell viability assay.

[25] = system: RKO; format: functional, cell-based, Homo sapiens; conditions: Homo sapiens, RKO;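 further: growth inhibition of human RKO cells, read out with a cell viability assay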
[26] = system: A3-KAW; format: functional, cell-based; conditions: Homo sapiens;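 further: growth inhibition of human A3-KAW cells, read out with a cell viability assay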
Description: SANGER: Inhibition of human A3-KAW cell growth in a cell viability assay.

Row | Compound | pIC50 [1] | pIC50 [2] | pIC50 [3] | pIC50 [4] | pIC50 [5] | pIC50 [6] | pIC50 [7] | pIC50 [8] | pIC50 [9] | pIC50 [10] | pIC50 [11] | pIC50 [12] | pIC50 [13] | pIC50 [14] | pIC50 [15] | pIC50 [16] | pIC50 [17] | pIC50 [18] | pIC50 [19] | pIC50 [20] | further results
1 | C=C1C(=O)O[C@@H]2C3O[C@]3(C)CC/C=C(\C)CC[C@@H]12 (stereo partly specified) | 5.87 | < 5.30 | < 5.30 | < 5.30 | < 5.30 | < 5.30 | < 5.30 | < 5.30 | < 5.30 | < 5.30 | < 5.30 | < 5.30 | < 5.30 | < 5.30 | < 5.30 | < 5.30 | < 5.30 | < 5.30 | < 5.30 | < 5.30 | pIC50 [21]: < 5.30; pIC50 [22]: < 5.30; pIC50 [23]: < 5.30; pIC50 [24]: < 5.30; pIC50 [25]: < 5.30; pIC50 [26]: 5.64
2 | CC1=C2C[C@H]3[C@@H](CC=C4C[C@@H](O)CC[C@@]43C)[C@@H]2CC[C@]12O[C@@H]1C[C@H](C)CN[C@H]1[C@H]2C [CYCLOPAMINE] | 5.00 | < 4.80 | < 4.80 | < 4.80 | < 4.80 | < 4.80 | < 4.80 | < 4.80 | < 4.80 | 5.03 | < 4.80 | < 4.80 | < 4.80 | < 4.80 | < 4.80 | < 4.80 | < 4.80 | < 4.80 | < 4.80 | < 4.80 | pIC50 [21]: < 4.80; pIC50 [22]: < 4.80; pIC50 [23]: < 4.80; pIC50 [25]: < 4.80; pIC50 [26]: < 4.80
3 | CS(=O)(=O)CCNCc1ccc(-c2ccc3ncnc(Nc4ccc(OCc5cccc(F)c5)c(Cl)c4)c3c2)o1 [LAPATINIB] | < 5.70 | < 5.70 | < 5.70 | < 5.70 | 6.35 | < 5.70 | < 5.70 | < 5.70 | < 5.70 | < 5.70 | < 5.70 | < 5.70 | < 5.70 | < 5.70 | < 5.70 | < 5.70 | < 5.70 | < 5.70 | < 5.70 | < 5.70 | pIC50 [21]: < 5.70; pIC50 [22]: < 5.70; pIC50 [23]: < 5.70; pIC50 [25]: < 5.70; pIC50 [26]: < 5.70
4 | CCc1nc(N)nc(N)c1-c1ccc(Cl)cc1 [PYRIMETHAMINE] | < 4.70 | < 4.70 | < 4.70 | < 4.70 | < 4.70 | < 4.70 | < 4.70 | 5.75 | < 4.70 | < 4.70 | < 4.70 | < 4.70 | < 4.70 | 4.80 | < 4.70 | < 4.70 | < 4.70 | < 4.70 | < 4.70 | < 4.70 | pIC50 [21]: 5.24; pIC50 [22]: 5.18; pIC50 [23]: 4.92; pIC50 [24]: < 4.70; pIC50 [25]: < 4.70; pIC50 [26]: 5.02
5 | O=C(/C=C/c1ccccc1)NC(NC(=S)Nc1cccc2cccnc12)C(Cl)(Cl)Cl (stereo unspecified) [SALUBRINAL] | < 4.80 | < 4.80 | 4.86 | < 4.80 | < 4.80 | < 4.80 | < 4.80 | 4.92 | < 4.80 | 4.99 | < 4.80 | < 4.80 | < 4.80 | 4.85 | < 4.80 | < 4.80 | < 4.80 | < 4.80 | < 4.80 | < 4.80 | pIC50 [21]: < 4.80; pIC50 [22]: < 4.80; pIC50 [23]: < 4.80; pIC50 [25]: < 4.80; pIC50 [26]: 5.07
6 | CN1CCN(CCOc2cc(OC3CCOCC3)c3c(Nc4c(Cl)ccc5c4OCO5)ncnc3c2)CC1 [SARACATINIB] | < 5.70 | < 5.70 | < 5.70 | < 5.70 | < 5.70 | 5.81 | < 5.70 | < 5.70 | < 5.70 | 5.77 | < 5.70 | < 5.70 | < 5.70 | < 5.70 | < 5.70 | < 5.70 | < 5.70 | < 5.70 | < 5.70 | < 5.70 | pIC50 [22]: 6.22; pIC50 [23]: 5.70; pIC50 [24]: < 5.70; pIC50 [25]: < 5.70; pIC50 [26]: < 5.70
7 | CO[C@H]1C[C@@H]2CC[C@@H](C)[C@@](O)(O2)C(=O)C(=O)N2CCCC[C@H]2C(=O)O[C@H]([C@H](C)C[C@@H]2CC[C@@H](O)[C@H](OC)C2)CC(=O)[C@H](C)/C=C(\C)[C@@H](O)[C@@H](OC)C(=O)[C@H](C)C[C@H](C)/C=C/C=C/C=C/1C [SIROLIMUS] | 8.14 | < 7.00 | 7.49 | < 7.00 | < 7.00 | 7.46 | < 7.00 | < 7.00 | < 7.00 | 8.47 | 8.92 | < 7.00 | < 7.00 | 7.88 | < 7.00 | < 7.00 | < 7.00 | < 7.00 | 8.60 | < 7.00 | pIC50 [22]: 9.06; pIC50 [23]: 8.18; pIC50 [24]: < 7.00; pIC50 [25]: 7.30; pIC50 [26]: 8.52
8 | CNC(=O)c1cc(Oc2ccc(NC(=O)Nc3ccc(Cl)c(C(F)(F)F)c3)cc2)ccn1 [SORAFENIB] | 5.79 | < 5.40 | < 5.40 | < 5.40 | < 5.40 | < 5.40 | < 5.40 | < 5.40 | < 5.40 | < 5.40 | < 5.40 | < 5.40 | < 5.40 | < 5.40 | < 5.40 | < 5.40 | < 5.40 | < 5.40 | < 5.40 | < 5.40 | pIC50 [21]: 6.05; pIC50 [22]: 6.25; pIC50 [23]: < 5.40; pIC50 [24]: < 5.40; pIC50 [25]: < 5.40; pIC50 [26]: 5.72
9 | CCC(=O)N1CCN(c2ccc(-n3c(=O)ccc4cnc5ccc(-c6cnc7ccccc7c6)cc5c43)cc2C(F)(F)F)CC1 [TORIN1] | 7.80 | < 5.92 | 7.58 | 6.95 | 6.35 | 7.60 | 6.79 | 7.55 | 7.42 | 8.65 | 8.19 | < 5.92 | < 5.92 | 7.88 | < 5.92 | 6.30 | < 5.92 | 6.66 | 7.85 | < 5.92 | pIC50 [22]: 8.62; pIC50 [23]: 7.92; pIC50 [25]: 7.81; pIC50 [26]: 7.21
10 | Cc1cc(Nc2cc(N3CCN(C)CC3)nc(Sc3ccc(NC(=O)C4CC4)cc3)n2)n[nH]1 [TOZASERTIB] | < 5.70 | < 5.70 | 5.73 | < 5.70 | < 5.70 | < 5.70 | < 5.70 | < 5.70 | 6.91 | 6.47 | < 5.70 | < 5.70 | 6.26 | 6.94 | < 5.70 | < 5.70 | < 5.70 | < 5.70 | 5.91 | < 5.70 | pIC50 [22]: < 5.70; pIC50 [23]: < 5.70; pIC50 [25]: 6.51; pIC50 [26]: < 5.70
